The values that follow are results of earlier work, collected in patent publication US8916356B2, “Measuring thrombin activity in whole blood” (Synapse B.V., priority 2005, dated 2014).

For series [1] the following is noted: literature ref 17.
Series [2] concerns thrombin generation in platelet rich plasma (or whole blood). The note with it: literature refs 13-16.

Turning to `CC(=O)Oc1ccccc1C(=O)O` [aspirin], in series [1], the “effect on venous thrombosis” value is “prevents venous thrombosis”. Moreover, in series [2], the “effect on thrombin generation” value is listed as “inhibit thrombin generation”. Take `COC(=O)[C@H](c1ccccc1Cl)N1CCc2sccc2C1` [clopidogrel]: in series [2], the “effect on thrombin generation” value was “inhibit thrombin generation”.

`CCCCS(=O)(=O)N[C@@H](Cc1ccc(OCCCCC2CCNCC2)cc1)C(=O)O` [MK383]: the “effect on thrombin generation” value in series [2] is “inhibit thrombin generation”.

B1: abciximab (antibody, chains of the INN, looked up, V domains shown)
VH: EVQLQQSGTVLARPGASVKMSCEASGYTFTNYWMHWVKQRPGQGLEWIGAIYPGNSDTSYIQKFKGKAKLTAVTSTTSVYMELSSLTNEDSAVYYCTLYDGYYVFAYWGQGTLVTVSA
VL: EIVLTQSPVTLSVTPGDSVSLSCRASRDISNNLHWFQQTSHESPRLLIKYASQSMSGIPSRFSGSGSGTDFTLSINSVETEDFGMYFCQQTNSWPYTFGGGTKLEIK
modifications: Fab
notes: antiplatelet agent
For B1, in series [2], the “effect on thrombin generation” value is recorded as “inhibit thrombin generation”.
